# From patent US8642611B2, “Alkynylpyrimidines and salts thereof, pharmaceutical compositions comprising same, methods of preparing same and uses of same” (Bayer Intellectual Property GmbH, priority 2007, dated 2014)
# pIC50: −log10 of the molar value.
# What was measured:
# MVECs = assay: VEGF-Stimulated Endothelial Cell Proliferation Assay; assay type: cell-based; conditions: 72 h, 3 days, Alamar Blue, read-out: EC proliferation (assay 5)
# Description: Assay 5: VEGF-Stimulated Endothelial Cell Proliferation Assay
# MVECs are plated to collagen coated 48 well plates at a density of 30 000 cells per well in Earles's Medium M199 (complete with serum). After 4 h the medium is exchanged for medium containing 2% human serum without growth factors (200 μl) and cells are maintained overnight at low serum conditions. The other day the medium is exchanged for the same low serum medium containing in addition test compounds or vehicle in the appropriate concentrations using appropriate controls is exchanged. Five minutes later low serum medium containing 40 ng/ml VEGF is added (200 μl). Cells are cultured for 3 days before mixing with Alamar Blue® (dilution factor of 1: 20) and incubating it for 2 h at 37° C. Measurement of fluorescence intensity is done with the following filters: 528/25 Excitation, 590/35 Emission for the determination of the IC50 concentrations.
# Culture Medium Composition
# Earle's Medium 199 with stable Glutamine (PAA)+5 ml PenStrep (100×; 10000 Units/10 mg/ml) (PAA)+5 ml Non Essential Amino Acids (100×; without L-Glutamine) (PAA)+5 ml Sodium Pyruvat (100 mM) (PAA)+50 ml FCS (PAA)+50 ml HS+1 ml ECGS in Dulbecco's PBS without Ca2++Mg2+(5 mg/ml) (Sigma)+1 ml Heparin (2500 Units/ml)+2.5 ml Biotect-Protection medium (Biochrom AG)=complete Earle's M 199 medium
# Earle's Medium 199 (PAA) with stable Glutamine+5 ml PenStrep (100×; 10000 Units/10 mg/ml) (PAA)+5 ml Non Essential Amino Acids (100×; without L-Glutamine) (PAA)+5 ml Sodium Pyruvat (100 mM) (PAA), 2% HS+2.5 ml Biotect- Protection medium (Biochrom AG)
# human Aurora-C = target: T1, human Aurora-C (Homo sapiens, UniProt Q9UQB9); assay: Aurora-C Kinase Assay; assay type: biochemical; conditions: Aurora-C HTRF, 10 μM ATP; read-out: Aurora C activity (assay 7)
# T1 construct: GST; made in house; host or cells: transiently transfected HEK293 cells (the print adds '(Sf9)', which contradicts this)
# T1 sequence (Q9UQB9 1-309): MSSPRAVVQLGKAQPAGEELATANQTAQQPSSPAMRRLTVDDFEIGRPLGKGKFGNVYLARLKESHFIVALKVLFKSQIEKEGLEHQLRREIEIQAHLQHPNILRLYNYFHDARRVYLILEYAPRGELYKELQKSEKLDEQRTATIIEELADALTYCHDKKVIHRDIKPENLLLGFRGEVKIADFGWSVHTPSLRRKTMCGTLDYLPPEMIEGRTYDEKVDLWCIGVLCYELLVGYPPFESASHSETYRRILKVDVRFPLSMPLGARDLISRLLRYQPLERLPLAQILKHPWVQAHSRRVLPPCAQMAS
# Description: Assay 7: Aurora-C Kinase Assay
# Aurora-C inhibitory activity of compounds of the present invention was quantified employing the Aurora-C HTRF assay as described in the following paragraphs.
# Recombinant fusion protein of GST and human Aurora-C was expressed in transiently transfected HEK293 cells […] and purified by Glutathion-Sepharose affinity chromatography. As substrate for the kinase reaction biotinylated peptide biotin-Ttds-FMRLRRLSTKYRT (C-terminus in amid form) was used which can be purchased e.g. form the company JERINI peptide technologies (Berlin, Germany). Aurora-C was incubated for 60 min at 22° C. in the presence of different concentrations of test compounds in 5 μl assay buffer [25 mM Hepes/NaOH pH 7.4, 0.5 mM MnCl2, 2.0 mM dithiothreitol, 0.1 mM sodium ortho-vanadate, 10 μM adenosine-tri-phosphate (ATP), […] substrate, 0.01% (v/v) TritonX-100 (Sigma), 0.05% (w/v) bovine serum albumin, 1% (v/v) dimethylsulfoxide]. The concentration of Aurora-C was adjusted depending of the activity of the enzyme lot and was chosen appropriate to have the assay in the linear range, typical concentrations were in the range of 0.3 nM. The reaction was stopped by the addition of 5 μl of a solution of HTRF detection reagents (0.2 μM streptavidine-XLent and 1.4 nM Anti-Phospho-(Ser/Thr) Akt substrate-Cryptate (C is biointernational, France, product no. 61PO2KAE), a labeled Phospho-(Ser/Thr) Akt substrate antibody [product #9611B, Cell Signaling Technology, Danvers, Mass., USA] labeled with Europium Cryptate, in an aqueous EDTA-solution (40 mM EDTA, 400 mM KF, 0.05% (w/v) bovine serum albumin in 25 mM HEPES/NaOH pH 7.0).
# The resulting mixture was incubated 1 h at 22° C. to allow the binding of the biotinylated phosphorylated peptide to the streptavidine-XLent and the Anti-Phospho-(Ser/Thr) Akt substrate-Cryptate. Subsequently the amount of phosphorylated substrate was evaluated by measurement of the resonance energy transfer from the Prot-A-EuK to the streptavidine-XLent. Therefore, the fluorescence emissions at 620 nm and 665 nm after excitation at 350 nm was measured in a HTRF reader, e.g. a Rubystar (BMG Labtechnologies, Offenburg, Germany) or a Viewlux (Perkin-Elmer). The ratio of the emissions at 665 nm and at […] was taken as the measure for the amount of phosphorylated substrate. The data were normalised (enzyme reaction without inhibitor=0% inhibition, all other assay components but no enzyme=100% inhibition) and IC50 values were calculated by a 4 parameter fit using an inhouse software.
Structure (SMILES),pIC50 (MVECs),pIC50 (human Aurora-C)
"COc1ccc(C#Cc2cnc(Nc3ccc(S(C)(=N)=O)cc3)nc2N[C@H](C)CO)cc1 (mixture of isomers) [Example 1.1, (RS)—S-(4-[4-((R)-2-Hydroxy-1-methyl-ethylamino)-5-(4-methoxy-phenylethynyl)-pyrimidin-2-ylamino]-phenyl)-S-methylsulfoximide]",> 6.30,< 5.00
"C[C@H](CO)Nc1nc(Nc2ccc(S(C)(=N)=O)cc2)ncc1C#Cc1ccccc1 (mixture of isomers) [Example 1.2, (RS)-S-(4-[4-((R)-2-Hydroxy-1-methyl-ethylamino)-5-(phenylethynyl)-pyrimidin-2-ylamino]-phenyl)-S-methylsulfoximide]",> 6.30,< 5.00
"CCc1ccc(C#Cc2cnc(Nc3ccc(S(C)(=N)=O)cc3)nc2N[C@H](C)CO)cc1 (mixture of isomers) [Example 1.8, (RS)-S-(4-[5-(4-Ethyl-phenylethynyl)-4-((R)-2-hydroxy-1-methyl-ethylamino)-pyrimidin-2-ylamino]-phenyl)-S-methylsulfoximide]",,< 5.00
"C[C@H](CO)Nc1nc(Nc2ccc(S(C)(=N)=O)cc2)ncc1C#Cc1ccc(F)cc1 (mixture of isomers) [Example 1.9, (RS)-S-(4-[5-(4-Fluoro-phenyl-ethynyl)-4-((R)-2-hydroxy-1-methyl-ethylamino)-pyrimidin-2-ylamino]-phenyl)-S-methylsulfoximide]",> 6.30,< 5.00
"Cc1cc(C#Cc2cnc(Nc3ccc(S(C)(=N)=O)cc3)nc2N[C@H](C)CO)ccc1F (mixture of isomers) [Example 1.13, (RS)-S-(4-[5-(4-Fluoro-3-methyl-phenyl-ethynyl)-4-((R)-2-hydroxy-1-methyl-ethylamino)-pyrimidin-2-ylamino]-phenyl)-S-methylsulfoximide]",> 6.30,< 5.00
"CC(C)NC(=O)N=S(C)(=O)c1cccc(Nc2ncc(C#Cc3cccc(O)c3)c(N[C@H](C)CO)n2)c1 (mixture of isomers) [Example 1.15, (RS)-S-(3-[4-((R)-2-Hydroxy-1-methyl-ethylamino)-5-(3-hydroxy-phenylethynyl)-pyrimidin-2-ylamino]-phenyl)-N-(isopropylcarbamoyl)-S-methylsulfoximide]",,< 5.00
"COc1ccc(C#Cc2cnc(Nc3cccc(S(C)(=N)=O)c3)nc2N[C@H](C)CO)cc1 (mixture of isomers) [Example 1.17, (RS)-S-(3-[4-((R)-2-Hydroxy-1-methyl-ethylamino)-5-(4-methoxy-phenylethynyl)-pyrimidin-2-ylamino]-phenyl)-S-methylsulfoximide]",,< 5.00
"C[C@H](CO)Nc1nc(Nc2cccc(S(C)(=N)=O)c2)ncc1C#Cc1cccc(O)c1 (mixture of isomers) [Example 1.18, (RS)-S-(3-[4-((R)-2-Hydroxy-1-methyl-ethylamino)-5-(3-hydroxy-phenylethynyl)-pyrimidin-2-ylamino]-phenyl)-S-methylsulfoximide]",> 6.30,< 5.00
"Cc1ccccc1C#Cc1cnc(Nc2cccc(S(C)(=N)=O)c2)nc1N[C@H](C)CO (mixture of isomers) [Example 1.19, (RS)-S-(3-[4-((R)-2-Hydroxy-1-methyl-ethylamino)-5-(2-methyl-phenylethynyl)-pyrimidin-2-ylamino]-phenyl)-S-methylsulfoximide]",> 6.30,< 5.00
"Cc1cc(C#Cc2cnc(Nc3cccc(S(C)(=N)=O)c3)nc2N[C@H](C)CO)ccc1F (mixture of isomers) [Example 1.20, (RS)-S-(3-[5-(4-Fluoro-3-methyl-phenyl-ethynyl)-4-((R)-2-hydroxy-1-methyl-ethylamino)-pyrimidin-2-ylamino]-phenyl)-S-methylsulfoximide]",> 6.30,< 5.00
Cc1ccccc1C#Cc1cnc(Nc2ccc(S(C)(=N)=O)cc2)nc1N[C@H](C)CO (mixture of isomers) [Example 1.3],> 6.30,< 5.00
Cc1ccc(C#Cc2cnc(Nc3ccc(S(C)(=N)=O)cc3)nc2N[C@H](C)CO)cc1 (mixture of isomers) [Example 1.5],> 6.30,< 5.00
"CCNc1nc(Nc2ccc(S(C)(=N)=O)cc2)ncc1C#Cc1ccc(F)c(C)c1 (racemic) [Example 1.24, (RS)-S-(4-[4-ethylamino-5-(4-fluoro-3-methyl-phenyl-ethynyl)-pyrimidin-2-ylamino]-phenyl)-S-methylsulfoximide]",,5.00 to 6.00
"CCNc1nc(Nc2ccc(S(C)(=N)=O)cc2)ncc1C#Cc1ccc(OC)cc1 (racemic) [Example 1.26, (RS)-S-(4-[4-ethylamino-5-(4-methoxy-phenyl-ethynyl)-pyrimidin-2-ylamino]-phenyl)-S-methylsulfoximide]",,5.00 to 6.00
CCOC(=O)N=S(C)(=O)c1ccc(Nc2ncc(C#Cc3cccc(O)c3)c(N[C@H](C)CO)n2)cc1 (mixture of isomers) [Example 2.7],> 6.30,5.00 to 6.00
"CS(=N)(=O)c1cccc(Nc2ncc(C#Cc3cccc(O)c3)cn2)c1 (racemic) [Example 4.2, (RS)—S-(3-[5-(3-hydroxy-phenylethynyl)-pyrimidin-2-ylamino]-phenyl)-S-methylsulfoximide]",,< 5.00
